Measured values published in US20260137807A1, “COMPOSITIONS AND METHODS FOR DELIVERING A MACROMOLECULE TO A CELL” (AstraZeneca AB, priority 2022, published 2026).

Legend:
Format in all cases: cell-based
HeLa mCherry-Gal9 cells = experiment: mCherry-GAL9 recruitment assay; conditions: for quantitation of Gal9 recruitment over time / window in concentration between induction of endosomal rupture and cytotoxicity: HeLa; for quantitation of Gal9 recruitment over time: FIG. 8; for relocalisation of Gal9 from cytosolic to punctate: 10-point dose titration, 2 hours, FIG. 3; for window in concentration between induction of endosomal rupture and cytotoxicity: FIG. 5
Text: (§1) All compounds were subjected to a mCherry-GAL9 recruitment assay. Under normal conditions, mCherry-GAL9 is homogenously dispersed in the cytosol. When an endosomal leakage event is detected, mCherry-GAL9 translocates to the damaged endosome (Du Rietz et al. (2020) Nat. Commun. 11:1809) The resulting localization pattern of discrete puncta can be visualized and quantitated.
(§2) HeLa and Huh7 cell lines stably expressing mCherry-GAL9 were generated as described by (bioRxiv) (Munson, M. et al. (2021) Communications Biology, 4(211): 1-14) and seeded into 384-well CellCarrier Ultra plates (PerkinElmer: 6007558) at 3000 or 3500 cells/well respectively, 16 h before experimental usage.
(§3) Dose-response curves of select compounds were generated using an Echo 655T acoustic dispenser (Labcyte) to dispense the indicated compounds into source plates (Greiner: 781280) containing growth media. At experimental start points, media containing appropriate compounds and doses was transferred to plates using a liquid handling robot (Agilent Bravo).
(§4) At assay endpoints, cells were washed 2× PBS at RT and fixed in 4% PFA (VWR: 9713.1000) for 15 mins/RT. Cells were washed a further 3× PBS before the addition of PBS+1 μg/ml Hoechst 33342 (ThermoFisher Scientific: H21492) for a minimum of 1 h before imaging.
(§5) Plates were imaged using a spinning-disk confocal microscope (Yokogawa: CV7000) with a 20× objective (NA 0.75). Images were processed utilizing Columbus image-analysis software (PerkinElmer: v2.9.0) to identify and quantify cells and mCherry-GAL9 structures. The resulting data were processed and normalized in Spotfire (Tibco: v10.3) and plotted in Prism (Graphpad: v8.0.1). Image panels were assembled using the FigureJ plugin for FIJI. (Mutterer and Zinck (2013) J. Microsc. 252(1):89-91).
(§6) Cells were subjected to a 10-point concentration dilution (0-15 μM) for 2 hours and then fixed and imaged (FIG. 3 and FIG. 4). Images were analyzed and curves were generated from both mCherry-GAL9 puncta quantitation and cell survival as determined by nuclear morphology (FIG. 5). The GAL9 recruitment response support the functional splice-switching data with SSOs, confirming the mCherry-GAL9 assay as a powerful tool for screening endosomolytic compounds and supporting the hypothesis that AZ2467 (Compound 6) and AZ4800 (Compound 2) promote SSO activity by inducing endosomal rupture. The GAL9 assay was again conducted, this time in live cells for 4 hours with select compounds for screening. Compounds were screened at 5 μM (FIG. 6-8) or 0.3125-10 μM (FIG. 35-38). FIG. 39 and FIG. 47 provide results for select compounds at various doses 0.3125-10 μM.

Huh7 mCherry-Gal9 cells = experiment: mCherry-GAL9 recruitment assay; conditions: for quantitation of Gal9 recruitment over time: Huh7, FIG. 7; for relocalisation of Gal9 from cytosolic to punctate: 10-point dose titration, 2 hours, FIG. 4; for window in concentration between induction of endosomal rupture and cytotoxicity: Huh7, FIG. 5
Text: as §1, §2, §3, §4, §5, §6

mCherry-GAL9 cells = experiment: mCherry-GAL9 assay in live cells for 4 hours, screening; conditions: 5 μM (FIG. 6-8)
Experimental: as §6

HeLa Luc705 cells = experiment: Splice switching activity assay (Luc705 luciferase reporter), Example 4A
Text: HeLa Luc705 and Huh7 Luc705 cells were used to screen and characterize the SMC generated in Example 2 for their ability to increase levels of an SSO-induced splice variant by co-treatment of the cells with the SSO and SMC. The Luc705 reporter construct was used for quantitation of luciferase protein produced as a result of functional SSO delivery. (Kang et al. (1998) Biochemistry, 37(18):6235-6239; Rocha et al. (2016) Four Novel Splice-Switch Reporter Cell Lines: Distinct Impact of Oligonucleotide Chemistry and Delivery Vector on Biological Activity. Nucleic Acid Ther. 26(6):381). Briefly, a plasmid carrying the luciferase coding sequence interrupted by an insertion of intron 2 from β-globin pre-mRNA carrying a cryptic splice site was stably transfected into cells. Unless the aberrant slice site was masked by an antisense oligonucleotide, the pre-mRNA of luciferase was improperly processed.
HeLa Luc705 and Huh7 Luc705 cells were seeded in 96-well plates at 10,000 cells per well in growth media containing 1 μM Luc705-SSO and incubated to allow adherence and oligo internalization. After 24 hours, 10 μl of SMC diluted in Growth Media (DMEM+10% FBS) was added into each well. After 2 hours, media was removed from the wells and replaced with fresh growth media for 4 hours to allow for translation of the variant proteins. The media was then removed, and cells were lysed with 0.1% Triton-PBS.
To detect luciferase activity, 30 μL of cell lysate was transferred to white-walled 96-well plates. Luciferase intensity in each well was measured using a GloMax® 96 Microplate Luminometer machine (Promega) following auto-injection of 25 μL Luciferin substrate (Firefly Luciferase Assay System: Promega) per well. Photon measurements were acquired for 10 seconds, starting 2 seconds after injection.
To determine whether AZ4800 (Compound 2, FIG. 1B) and SSO must be present in the cell media simultaneously for Compound 2 to produce its synergistic effects, the treatment plan was modified from the UNC2383 treatment plan detailed by Wang et al. (2017) ACS Chem. Biol. 12(8):1999-2007 to include a 24 hour pre-treatment with SSO, followed by the addition of Compound 2 for two hours, followed by the removal of SSO and Compound 2, and finally a 4-hour protein translation period (FIG. 10).

HeLa_Luc705 cells = experiment: Splice switching activity assay, 24 hr SMC treatment, Examples 4B/4D
Experimental: (§7) HeLa_Luc705 cells were seeded in 96-well plates at 10,000 cells per well in growth media with 2 μM Luc705-SSO or 1 μM Luc705-SSO. The various SMCs were diluted directly into prepared growth media. After 24 hr to allow adherence and SSO internalization, 10 μl of diluted SMC was added into each well at indicated concentrations. For a positive control, SSOs were complexed with Lipofectamine 2000 for 30 min at RT and cells treated with a final concentration of 200 nM. ON concentrations above 200 nM would require LF2000 to be used in excess of the cells' toxicity threshold. After 24 hr treatment, cells were lysed with 0.1% TritonX-100 (Sigma Aldrich, cat no. X100) in 1× PBS (Gibco, cat no. 10010023).
(§8) For the detection of luciferase activity, 30 μL of cell lysate was transferred to white-walled plates. The luciferase intensity in each well was immediately measured via luminometer following auto-injection of 25 μL Luciferin substrate as per the Promega Firefly Luciferase Assay System. The timing parameters of photon measurements were optimized for this procedure.
(§9) The various SMCs were diluted directly into prepared growth media. After 24 hr to allow adherence and SSO internalization, 10 μl of diluted SMC was added into each well at indicated concentrations. For a positive control, SSOs were complexed with Lipofectamine 2000 for 30 min at RT and cells treated with a final concentration of 200 nM. ON concentrations above 200 nM would require LF2000 to be used in excess of the cells' toxicity threshold. After 24 hr treatment, cells were lysed with 0.1% TritonX-100 (Sigma Aldrich, cat no. X100) in 1× PBS (Gibco, cat no. 10010023).

N2A_Luc705 cells = experiment: Splice switching activity assay, 24 hr SMC treatment, Examples 4C/4D; conditions: compounds at 5 μM, 1 μM Luc 705 SSO, FIG. 25B
Experimental: as §7, with “U2OS_Luc705 and N2A_Luc705” for “HeLa_Luc705”, “with” for “with 2 μM Luc705-SSO or”
as §8, §9

U2OS_Luc705 cells = experiment: as above; conditions: compounds at 5 μM, 1 μM Luc 705 SSO, FIG. 25A
Experimental: as §7, with “U2OS_Luc705 and N2A_Luc705” for “HeLa_Luc705”, “with” for “with 2 μM Luc705-SSO or”
as §8, §9

## COc1ccc2c(-c3nc(Nc4cn(C5CCNCC5)nc4OC)ncc3Cl)c[nH]c2c1 [Compound 5]
HeLa mCherry-Gal9 cells
  quantitation of Gal9 recruitment over time: time-dependent endosomal rupture
Huh7 mCherry-Gal9 cells
  quantitation of Gal9 recruitment over time: time-dependent endosomal rupture
mCherry-GAL9 cells
  GAL9 recruitment, reason for selection for further characterization: efficacy at shorter-term timepoints

## CCOc1nn(C2CCNCC2)cc1Nc1ncc(Cl)c(-c2c[nH]c3ccccc23)n1 [Compound 6]
HeLa Luc705 cells; 5 μM compound, 1 μM SSO or 100 nM SSO, FIG. 2B
  increase in functional SSO activity: increase in activity
HeLa Luc705 cells; up to 6 hours at 10 μM, FIG. 11B
  increase in SSO activity: 200 fold
HeLa mCherry-Gal9 cells
  relocalisation of Gal9 from cytosolic to punctate: dose-dependent manner
  window in concentration between induction of endosomal rupture and cytotoxicity: narrow window
  quantitation of Gal9 recruitment over time: time-dependent endosomal rupture
Huh7 mCherry-Gal9 cells
  relocalisation of Gal9 from cytosolic to punctate: dose-dependent manner
  window in concentration between induction of endosomal rupture and cytotoxicity: narrow window
  quantitation of Gal9 recruitment over time: time-dependent endosomal rupture
mCherry-GAL9 cells
  GAL9 recruitment, reason for selection for further characterization: efficacy at shorter-term timepoints

## CCOc1nn(C2CCNCC2)cc1Nc1ncc(C(F)(F)F)c(-c2c[nH]c3ccccc23)n1 [Compound 7]
HeLa_Luc705 cells; 2 μM Luc 705 SSO, FIG. 26
  increase in SSO activity: induced an increase in SSO activity
HeLa_Luc705 cells; 2 μM SSO, FIG. 23A
  increase in SSO activity: increase in SSO activity

## COc1nn(C2CCN(C)CC2)cc1Nc1ncc(F)c(-n2ccc3c(C#N)cccc32)n1 [Compound 8]
HeLa_Luc705 cells; 2 μM Luc 705 SSO, FIG. 24
  increase in SSO activity: increase in SSO activity
HeLa_Luc705 cells; 2 μM Luc 705 SSO, FIG. 26
  increase in SSO activity: induced an increase in SSO activity
N2A_Luc705 cells
  increase in SSO activity relative to oligo only: induced an increase in SSO activity relative to oligo only
U2OS_Luc705 cells
  increase in SSO activity relative to oligo only: induced an increase in SSO activity relative to oligo only
HeLa mCherry-Gal9 cells; doses 1.25-5 μM, 1, 2, 16 hours, FIG. 34
  GAL9 response, rank among exemplified compounds: second most potent
Huh7 mCherry-Gal9 cells; FIG. 40
  dose from which GAL9+ remodelling is induced: ≥ 2.5 µM
Huh7 mCherry-Gal9 cells; doses 1.25-5 μM, 1, 2, 16 hours, FIG. 33
  GAL9 response, rank among exemplified compounds: second most potent

## COc1nn(C2CCNCC2)cc1Nc1ncc(C#N)c(-n2ccc3c(C(F)(F)F)cccc32)n1 [Compound 20]
U2OS_Luc705 cells
  increase in SSO activity relative to oligo only: induced an increase in SSO activity relative to oligo only

## CCOc1nn(C2CCNCC2)cc1Nc1ncc(F)c(-n2ccc3c(C#N)cccc32)n1 [Compound 21]
HeLa_Luc705 cells; 2 μM Luc 705 SSO, FIG. 24
  increase in SSO activity: increase in SSO activity
HeLa_Luc705 cells; 2 μM Luc 705 SSO, FIG. 26
  increase in SSO activity: induced an increase in SSO activity
N2A_Luc705 cells
  increase in SSO activity relative to oligo only: induced an increase in SSO activity relative to oligo only
U2OS_Luc705 cells
  increase in SSO activity relative to oligo only: induced an increase in SSO activity relative to oligo only

## COc1nn(C2CCNCC2)cc1Nc1ncc(F)c(-n2ccc3ccc(C#N)cc32)n1 [Compound 22]
N2A_Luc705 cells
  increase in SSO activity relative to oligo only: induced an increase in SSO activity relative to oligo only
U2OS_Luc705 cells
  increase in SSO activity relative to oligo only: induced an increase in SSO activity relative to oligo only

## COc1nn(C2CCNCC2)cc1Nc1ncc(F)c(-c2c[nH]c3cccc(C)c23)n1 [Compound 25]
U2OS_Luc705 cells
  increase in SSO activity relative to oligo only: induced an increase in SSO activity relative to oligo only

## O=C(Nc1nc2ccccc2n1CCN1CCCC1)c1cc2cc(Cl)ccc2o1 [UNC2383, reference compound]
HeLa mCherry-Gal9 cells
  relocalisation of Gal9 from cytosolic to punctate: dose-dependent manner
  window in concentration between induction of endosomal rupture and cytotoxicity: narrow window
Huh7 mCherry-Gal9 cells
  relocalisation of Gal9 from cytosolic to punctate: dose-dependent manner
  window in concentration between induction of endosomal rupture and cytotoxicity: narrow window
  quantitation of Gal9 recruitment over time: time-dependent endosomal rupture
